Experiments:
female NMRI mice = experiment: Anorectic action: cumulated milk consumption after oral administration; format: in vivo
Procedure: The anorectic action was tested on female NMRI mice. After withdrawal of food for 24 hours, the test preparation of the invention was administered via a stomach tube. Kept individually and with free access to drinking water, the animals were offered evaporated milk 30 minutes after the administration of the preparation. The consumption of evaporated milk was determined every half-hour for 7 hours and the general condition of the animals was observed. The measured milk consumption was compared with that of untreated control animals.

melting point: 148 °C
SMILES: OC12N=C(c3ccccc3)SC1(Br)Cc1cc(Cl)ccc12 (stereo not drawn) [Example 1, 8a-Bromo-6-chloro-2-phenyl-8,8a-dihydroindeno[1,2-d]thiazol-3a-ol]
Number of animals/ cumulated milk consumption of the treated animals N/[ml] (female NMRI mice; oral dose 50 mg/kg via stomach tube, female NMRI mice after 24 h food withdrawal, evaporated milk consumption determined over 7 hours, N=5): 5/0.64 ml | Reduction of the cumulated milk consumption in % of the control (female NMRI mice; oral dose 50 mg/kg, female NMRI mice, compared to untreated control animals): 82%
